From US20260062422A1 (Halda Therapeutics OpCo, Inc., priority 2022, published 2026)

Columns and labels:
[1] = system: VCaP cells; experiment: Cellular growth inhibition assay for VCaP cells, CellTiter-Glo; type: cell-based, human; conditions: 72 hours treatment, CellTiter-Glo 2.0
Method in brief: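 GI50 values come from four-parameter curve fits of luminescence data normalized to a zero baseline. Compound, in medium with 0.5% DMSO, was added one day after plating and left for 72 h before CellTiter-Glo 2.0 addition.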

[2] = system: T-Rex 293 cell line SC3 cells having increased expression of androgen receptor protein due to exposure to doxycycline; experiment: Cellular growth inhibition, T-Rex 293 SC3 cells with doxycycline (androgen receptor induced), CellTiter-Glo; type: cell-based; conditions: T-Rex 293 SC3 cells with 10 ng/mL doxycycline (increased androgen receptor expression)
Method in brief: (§1)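 GI50 came from a four-parameter fit of CellTiter-Glo 2.0 luminescence after 72 h compound exposure (0.5% DMSO, 37 °C), dosing 24 h post-seeding. SC3 clone cells (2500/well), transfected with wild-type androgen receptor, grew in charcoal-stripped serum medium lacking phenol red, induced with 10 ng/mL doxycycline or left uninduced.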

[3] = system: T-Rex 293 cell line SC3 cells lacking increased expression of androgen receptor protein; experiment: Cellular growth inhibition, T-Rex 293 SC3 cells without doxycycline, CellTiter-Glo; type: cell-based; conditions: T-Rex 293 SC3 cells not exposed to doxycycline, CellTiter-Glo 2.0
Method in brief: as §1

[4] = system: T47D cells; experiment: Cellular growth inhibition assay for T47D cells, CellTiter-Glo; type: cell-based, human; conditions: 72 hours treatment, CellTiter-Glo 2.0 cell viability
Method in brief: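 Growth inhibition as GI50, fitted with four parameters to CellTiter-Glo luminescence after 72 h of compound exposure (0.5% DMSO). Cells were T47D, grown in insulin-supplemented (0.2 units/mL) DMEM with 10% FBS and treated one day post-seeding.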

SMILES | GI50 ([1]; Homo sapiens, VCaP, 72 h) [µM] | GI50 ([2]; 72 h) [µM] | GI50 ([3]; 72 h) [µM] | GI50 ([4]; Homo sapiens, T47D, 72 h) [µM] | GI50 [1] [µM] | GI50 ([2]; 72 hours) [µM] | GI50 ([3]; 72 hours) [µM] | GI50 [4] [µM]
Cc1sc2c(c1C)C(c1ccc(CNC(=O)[C@@H]3CCCN(c4ncc(C(=O)N[C@H]5C(C)(C)[C@H](Oc6ccc(C#N)c(Cl)c6)C5(C)C)cn4)C3)cc1)=N[C@@H](Cc1ncco1)c1nnc(C)n1-2 [Compound I-265] | < 0.5 | < 0.5 | 1.5 to 3 | < 0.5 | – | – | – | –
Cc1sc2c(c1C)C(c1ccc(CC3CC4(C3)CN(c3ncc(C(=O)N[C@H]5C(C)(C)[C@H](Oc6ccc(C#N)c(Cl)c6)C5(C)C)cn3)C4)cc1)=N[C@@H](Cc1ncco1)c1nnc(C)n1-2 [Compound I-151] | < 0.5 | < 0.5 | < 0.5 | < 0.5 | – | – | – | –
Cc1noc2c1-c1ccccc1C(c1ccc(O[C@H]3C[C@]4(CN(c5ncc(C(=O)N[C@H]6C(C)(C)[C@H](Oc7ccc(C#N)c(Cl)c7)C6(C)C)cn5)CCO4)C3)cc1)=N[C@@H]2Cc1ncco1 [Compound I-224] | < 0.5 | < 0.5 | > 3 | > 3 | – | – | – | –
Cc1sc2c(c1C)C(c1ccc(CN3CCO[C@@H](CNc4ncc(C(=O)N[C@H]5C(C)(C)[C@H](Oc6ccc(C#N)c(Cl)c6)C5(C)C)cn4)C3)cc1)=N[C@@H](Cc1ncco1)c1nnc(C)n1-2 [Compound I-334] | < 0.5 | < 0.5 | < 0.5 | < 0.5 | – | – | – | –
CC[C@@H]1N=C(c2ccc(CC3CC4(CCN(c5ccc(C(=O)N[C@H]6C(C)(C)[C@H](Oc7ccc(C#N)c(Cl)c7)C6(C)C)cn5)CC4)C3)cc2)c2c(sc(C)c2C)-n2c(C)nnc21 [Compound I-598] | < 0.5 | < 0.5 | > 3 | < 0.5 | – | – | – | –
Cc1sc2c(c1C)C(c1ccc(OC3CC4(CCN(c5ncc(C(=O)N[C@H]6C(C)(C)[C@H](Oc7ccc(C#N)c(Cl)c7)C6(C)C)cn5)CC4)C3)cc1)=N[C@H](Cc1nnn(C)n1)c1nnc(C)n1-2 [Compound I-219] | > 3 | < 0.5 | > 3 | > 3 | – | – | – | –
Cc1sc2c(c1C)C(c1ccc(O[C@H]3CCOC34CN(c3ncc(C(=O)N[C@H]5C(C)(C)[C@H](Oc6ccc(C#N)c(Cl)c6)C5(C)C)cn3)C4)cc1)=N[C@@H](Cc1ncco1)c1nnc(C)n1-2 [Compound I-183] | < 0.5 | < 0.5 | < 0.5 | 0.5 to 1.5 | – | – | – | –
Cc1sc2c(c1C)C(c1ccc([C@H]3C[C@H]([C@H]4CCCN(c5ncc(C(=O)N[C@H]6C(C)(C)[C@H](Oc7ccc(C#N)c(Cl)c7)C6(C)C)cn5)C4)C3)cc1)=N[C@@H](Cc1ncco1)c1nnc(C)n1-2 [Compound I-420] | > 3 | > 3 | > 3 | > 3 | – | – | – | –
Cc1sc2c(c1C)C(c1ccc(C(=O)N3CCN(Cc4ncc(C(=O)N[C@H]5C(C)(C)[C@H](Oc6ccc(C#N)c(Cl)c6)C5(C)C)cn4)CC3)cc1)=N[C@H](Cc1ncco1)c1nnc(C)n1-2 [Compound I-328] | > 3 | 1.5 to 3 | > 3 | 1.5 to 3 | – | – | – | –
Cc1sc2c(c1C)C(c1ccc(CC[C@H]3C[C@]4(CCCN(c5ncc(C(=O)N[C@H]6C(C)(C)[C@H](Oc7ccc(C#N)c(Cl)c7)C6(C)C)cn5)C4)C3)cc1)=N[C@@H](C)c1nnc(C)n1-2 [Compound I-369] | < 0.5 | < 0.5 | > 3 | > 3 | – | – | – | –
Cc1sc2c(c1C)C(c1ccc(N3CCC(C(=O)NCc4ncc(C(=O)N[C@H]5C(C)(C)[C@H](Oc6ccc(C#N)c(Cl)c6)C5(C)C)cn4)CC3)cc1)=N[C@@H](Cc1ncco1)c1nnc(C)n1-2 [Compound I-329] | < 0.5 | < 0.5 | 0.5 to 1.5 | < 0.5 | – | – | – | –
COC[C@@H]1N=C(c2ccc(OC3CC4(CCN(c5ncc(C(=O)N[C@H]6C(C)(C)[C@H](Oc7ccc(C#N)c(Cl)c7)C6(C)C)cn5)CC4)C3)cc2)c2c(sc(C)c2C)-n2c(C)nnc21 [Compound I-565] | < 0.5 | < 0.5 | > 3 | 1.5 to 3 | – | – | – | –
COCC[C@@H]1N=C(c2ccc(N3CC(CC4CCN(c5ncc(C(=O)N[C@H]6C(C)(C)[C@H](Oc7ccc(C#N)c(Cl)c7)C6(C)C)cn5)CC4)C3)cc2)c2c(sc(C)c2C)-n2c(C)nnc21 [Compound I-608] | < 0.5 | < 0.5 | > 3 | 0.5 to 1.5 | – | – | – | –
Cc1sc2c(c1C)C(c1ccc(CCC(=O)N3CC4(C3)CN(c3ncc(C(=O)N[C@H]5C(C)(C)[C@H](Oc6ccc(C#N)c(Cl)c6)C5(C)C)cn3)C4)cc1)=N[C@@H](C)c1nnc(C)n1-2 [Compound I-603] | 0.5 to 1.5 | < 0.5 | > 3 | 0.5 to 1.5 | – | – | – | –
Cc1sc2c(c1C)C(c1ccc([C@H]3CC[C@]4(C3)CN(c3ncc(C(=O)N[C@H]5C(C)(C)[C@H](Oc6ccc(C#N)c(Cl)c6)C5(C)C)cn3)CCO4)cc1)=N[C@@H](Cc1ncco1)c1nnc(C)n1-2 [Compound I-404] | > 3 | > 3 | > 3 | > 3 | – | – | – | –
[2H]C([2H])(c1ccc(C2=N[C@@H](Cc3ncco3)c3nnc(C)n3-c3sc(C)c(C)c32)cc1)N1CC[C@]2(CCCN(c3ncc(C(=O)N[C@H]4C(C)(C)[C@H](Oc5ccc(C#N)c(Cl)c5)C4(C)C)cn3)C2)C1 [Compound I-434] | < 0.5 | < 0.5 | > 3 | < 0.5 | – | – | – | –
CCNC(=O)C[C@@H]1N=C(c2ccc(CCC3CN(c4ncc(C(=O)N[C@H]5C(C)(C)[C@H](Oc6ccc(C#N)c(Cl)c6)C5(C)C)cn4)C3)cc2)c2c(sc(C)c2C)-n2c(C)nnc21 [Compound I-93] | < 0.5 | < 0.5 | 0.5 to 1.5 | 0.5 to 1.5 | – | – | – | –
Cc1sc2c(c1C)C(c1ccc(N3CCC(CC4CCN(c5ncc(C(=O)N[C@H]6C(C)(C)[C@H](Oc7ccc(C#N)c(Cl)c7)C6(C)C)cn5)CC4)CC3)cc1)=N[C@@H](Cc1ncco1)c1nnc(C)n1-2 [Compound I-210] | > 3 | 0.5 to 1.5 | > 3 | > 3 | – | – | – | –
Cc1sc2c(c1C)C(c1ccc(C3CC(C4CCN(c5ncc(C(=O)N[C@H]6C(C)(C)[C@H](Oc7ccc(C#N)c(Cl)c7)C6(C)C)cn5)CC4)C3)cc1)=NC(C)c1nnc(C)n1-2 (some centres unmarked) [Compound I-465] | – | < 0.5 | > 3 | < 0.5 | < 0.5 | – | – | –
Cc1sc2c(c1C)C(c1ccc(CN3CCC4(CCCN(c5ncc(C(=O)N[C@H]6C(C)(C)[C@H](Oc7ccc(C#N)c(Cl)c7)C6(C)C)cn5)C4)C3)cc1)=N[C@H](Cc1ncco1)c1nnc(C)n1-2 (some centres unmarked) [Compound I-146] | < 0.5 | < 0.5 | 0.5 to 1.5 | < 0.5 | – | – | – | –
Cc1sc2c(c1C)C(c1ccc(CC[C@H]3CC[C@@]4(CCCN(c5ncc(C(=O)N[C@H]6C(C)(C)[C@H](Oc7ccc(C#N)c(Cl)c7)C6(C)C)cn5)C4)C3)cc1)=N[C@@H](Cc1ncco1)c1nnc(C)n1-2 [Compound I-248] | > 3 | > 3 | > 3 | > 3 | – | – | – | –
Cc1sc2c(c1C)C(c1ccc(CNC(=O)[C@H]3CCCN(c4ncc(C(=O)N[C@H]5C(C)(C)[C@H](Oc6ccc(C#N)c(Cl)c6)C5(C)C)cn4)C3)cc1)=N[C@@H](Cc1ncco1)c1nnc(C)n1-2 [Compound I-264] | < 0.5 | < 0.5 | < 0.5 | < 0.5 | – | – | – | –
Cc1sc2c(c1C)C(c1ccc([C@H]3C[C@@H](C[C@@H]4CCCN(c5ncc(C(=O)N[C@H]6C(C)(C)[C@H](Oc7ccc(C#N)c(Cl)c7)C6(C)C)cn5)C4)C3)cc1)=N[C@@H](Cc1ncco1)c1nnc(C)n1-2 [Compound I-401] | – | – | – | – | > 3 | > 3 | > 3 | > 3
